Measured values reported in ChEMBL document CHEMBL4304815, “Photoswitchable Inhibitor of the Calcium Channel TRPV6” (ACS Med Chem Lett, 2019).
The source made the active and inactive calls. The calls are words filed in the database; no cut-off is given here.

What was measured:
[1] = biological target: T1, Transient receptor potential cation channel subfamily V member 6 (Homo sapiens) (UniProt Q9H1D0); assay: Inhibition of human TRPV6 expressed in HEK293 cells assessed as reduction of Cd2+ influx at 10 uM preincubated for 5 mins followed by CdCl2 addition measured under dark state by calcium-5 fluorescence dye-based FLIPR assay relative to control; format: cell-based
T1 sequence (whole entry): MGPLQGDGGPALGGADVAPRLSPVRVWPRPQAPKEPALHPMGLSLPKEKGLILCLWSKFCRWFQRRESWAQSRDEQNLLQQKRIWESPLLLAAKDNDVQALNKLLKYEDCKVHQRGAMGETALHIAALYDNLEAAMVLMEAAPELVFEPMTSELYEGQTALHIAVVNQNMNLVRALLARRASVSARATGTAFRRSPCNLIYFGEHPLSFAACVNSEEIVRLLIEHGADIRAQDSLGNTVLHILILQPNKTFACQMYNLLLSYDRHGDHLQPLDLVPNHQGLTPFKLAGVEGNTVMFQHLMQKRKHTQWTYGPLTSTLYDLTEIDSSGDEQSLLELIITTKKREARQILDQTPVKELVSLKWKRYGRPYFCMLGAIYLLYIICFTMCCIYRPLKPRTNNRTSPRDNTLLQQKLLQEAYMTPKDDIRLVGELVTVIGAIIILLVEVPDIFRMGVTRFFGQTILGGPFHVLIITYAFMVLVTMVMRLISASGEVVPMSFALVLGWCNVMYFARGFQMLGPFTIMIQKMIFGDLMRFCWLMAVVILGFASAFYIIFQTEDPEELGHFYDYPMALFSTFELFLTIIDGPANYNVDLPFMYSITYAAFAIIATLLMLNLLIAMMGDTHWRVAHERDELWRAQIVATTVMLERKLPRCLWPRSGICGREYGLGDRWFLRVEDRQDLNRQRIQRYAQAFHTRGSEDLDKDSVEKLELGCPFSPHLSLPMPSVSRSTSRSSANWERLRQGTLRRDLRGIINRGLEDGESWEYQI

[2] = Solubility of the compound in DMSO/buffer at >10 uM; format: physicochemical
[3] = Stability in DMSO assessed as parent compound remaining at 500 uM incubated for 48 hrs in dark by RP-UHPLC analysis; format: physicochemical; details: read-out: Stability
[4] = Stability in DMSO assessed as parent compound remaining at 500 uM irradiated with UV light at 365 nm for 5 mins measured immediately by RP-UHPLC analysis
[5] = biological target: T2, Transient receptor potential cation channel subfamily V member 6 (Homo sapiens, UniProt Q9H1D0); assay: Inhibition of human TRPV6 expressed in HEK293 cells assessed as reduction of Cd2+ influx preincubated for 5 mins followed by CdCl2 addition measured under dark state by calcium-5 fluorescence dye-based FLIPR assay; format: cell-based
T2 sequence (Q9H1D0 whole entry): T1 sequence (whole entry)

[6] = Drug isomerization in DMSO assessed as Z isomer level at 500 uM incubated for 48 hrs in dark by RP-UHPLC analysis
[7] = Drug isomerization in DMSO assessed as Z isomer level at 500 uM irradiated with UV light at 365 nm for 5 mins measured immediately by RP-UHPLC analysis
[8] = Drug isomerization in DMSO assessed as Z isomer level by measuring maximum absorbance at 500 uM irradiated with UV light at 365 nm for 5 mins measured immediately by UV-vis spectra analysis
[9] = Half life of the compound in DMSO assessed as thermal isomerization by measuring E isomer level at 500 uM incubated for 48 hrs under dark condition by UV-Vis spectroscopy; format: physicochemical
[10] = biological target: T1, Transient receptor potential cation channel subfamily V member 6 (Homo sapiens); assay: Inhibition of human TRPV6 expressed in HEK293 cells assessed as reduction in Cd2+ influx at 10 uM preincubated for 5 mins followed by CdCl2 addition using 365 nm UV-light irradiated compound by calcium-5 fluorescence dye-based FLIPR assay; format: cell-based
[11] = biological target: T2, Transient receptor potential cation channel subfamily V member 6; assay: Inhibition of human TRPV6 expressed in HEK293 cells assessed as reduction in Cd2+ influx preincubated for 5 mins followed by CdCl2 addition using 365 nm UV-light irradiated compound by calcium-5 fluorescence dye-based FLIPR assay; format: cell-based
[12] = Drug isomerization in DMSO assessed as Z isomer level at 500 uM irradiated with UV light at 365 nm for 5 mins measured immediately by UV-vis spectra analysis
[13] = biological target: T1, Transient receptor potential cation channel subfamily V member 6 (Homo sapiens); assay: Inhibition of human peTFP-C1-TRPV6 expressed in HEK293 cells assessed as decrease in whole cell inward calcium current density at 10 uM at 50 mV holding potential by patch clamp assay; format: cell-based
[14] = Thermal isomerization of the compound in DMSO assessed as E isomer level at 500 uM preincubated for 48 hrs under dark condition followed by irradiated with UV light at 365 nm for 5 mins and subsequent irradiation with UV light at 470 nm for 5 mins measured immediately by UV-Vis spectroscopy
[15] = biological target: T1, Transient receptor potential cation channel subfamily V member 6 (Homo sapiens); assay: Inhibition of human YFP-fused TRPV6 expressed in HEK293 cells assessed as decrease in whole cell inward calcium current density at 10 uM at 50 mV holding potential under 365 nm UV-light irradiation by patch clamp assay; format: cell-based
[16] = biological target: T1, Transient receptor potential cation channel subfamily V member 6 (Homo sapiens); assay: Inhibition of human YFP-fused TRPV6 expressed in HEK293 cells assessed as decrease in whole cell inward calcium current density at 10 uM at 50 mV holding potential pre-irradiated with 365 nm UV-light followed by […] irradiation by patch clamp assay; format: cell-based

Row | Structure (SMILES) | inhibition [1] [%] | solubility [2] | remaining at 48 h, 500 µM [3] [%] | Stability [4] [%] | Z isomer level [6] [%] | Z isomer level [7] [%] | half-life at 500 µM [9] [h] | inhibition [10] | Drug metabolism [12] | Drug metabolism [14] | also measured
1 | c1ccc(/N=N/c2ccc(CN3CCN([C@H]4CC[C@@H](c5ccccc5)CC4)CC3)cn2)cc1 | 70 | Insoluble | 100 | 50 | 0 | 50 |  |  |  |  | IC50 [5]: 600 nM; Activity [8]: 400 to 500 nm
2 | c1ccc(/N=N\c2ccc(CN3CCN([C@H]4CC[C@@H](c5ccccc5)CC4)CC3)cn2)cc1 |  |  |  |  |  |  | 3.7 | Active |  |  | IC50 [11]: 600 nM
3 | c1ccc(/N=N/c2ccc(N3CCN([C@H]4CC[C@@H](c5ccccc5)CC4)CC3)cn2)cc1 | 30 | Insoluble | 100 | 88 | 0 | 12 |  |  | Metabolite not detected |  | 
4 | c1ccc(/N=N\c2ccc(N3CCN([C@H]4CC[C@@H](c5ccccc5)CC4)CC3)cn2)cc1 |  |  |  |  |  |  | 0.137 | Active |  |  | 
5 | c1ccc(/N=N/c2ccc(CN3CCN([C@H]4CC[C@@H](c5ccccc5)CC4)CC3)cc2)cc1 | 13 | Insoluble | 97 | 25 | 3 | 75 |  |  |  |  | IC50 [5]: > 10000 nM; inhibition [13]: Active; Activity [8]: 400 to 500 nm
6 | c1ccc([C@H]2CC[C@@H](N3CCN(c4ccc(/N=N\c5cccnc5)cc4)CC3)CC2)cc1 |  |  |  |  |  |  |  |  |  | Metabolite detected | 
7 | c1ccc(/N=N/c2ccc(N3CCN([C@H]4CC[C@@H](c5ccccc5)CC4)CC3)cc2)cc1 |  | Insoluble | 93 | 93 | 7 | 7 |  |  | Metabolite not detected |  | 
8 | c1ccc(/N=N\c2ccc(N3CCN([C@H]4CC[C@@H](c5ccccc5)CC4)CC3)cc2)cc1 |  |  |  |  |  |  |  |  |  | Metabolite detected | 
9 | c1ccc([C@H]2CC[C@@H](N3CCN(c4ccc(/N=N/c5cccnc5)cc4)CC3)CC2)cc1 |  | Insoluble | 100 | 100 | 0 | 0 |  |  | Metabolite not detected |  | 
10 | c1ccc(/N=N\c2ccc(CN3CCN([C@H]4CC[C@@H](c5ccccc5)CC4)CC3)cc2)cc1 |  |  |  |  |  |  | 93.6 | Active |  | Metabolite detected | IC50 [11]: 1700 nM; inhibition [15]: Active; inhibition [16]: Active
